Assay results taken from BigSolDB 2.1.

CCOc1cc(C=O)ccc1O
solubility (mole fraction)
Conditions	273.15 K	278.15 K	283.15 K	288.15 K	293.15 K	298.15 K	303.15 K	308.15 K	313.15 K
in acetone	0.199	0.216	0.237	0.271	0.3	0.33	0.369	0.416	0.459
in ethanol	0.0564	0.0721	0.0911	0.109	0.141	0.183	0.224	0.283	0.34
in isopropanol	0.0336	0.0433	0.0552	0.072	0.0957	0.124	0.166	0.221	0.294
in methanol	0.0867	0.114	0.147	0.181	0.214	0.257	0.307	0.358	0.418
